Results as given in ChEMBL document CHEMBL1201862, “PubChem BioAssay data set” (2004).
Activity calls are given as the source filed them. Cut-off read from the data, not from the text of the source: actives have a measured IC50 and inactives only a lower limit.

Target: Envelope glycoprotein gp160 (Human immunodeficiency virus 1, UniProt Q6QLK5)
Experiment: cell-free HIV fusion peptide-binding blockers – biochemical, uHTS, fluorescence dequenching, […] (AID 1986)

Envelope glycoprotein gp160, sequence (Q6QLK5 whole entry, the tested form may be a part): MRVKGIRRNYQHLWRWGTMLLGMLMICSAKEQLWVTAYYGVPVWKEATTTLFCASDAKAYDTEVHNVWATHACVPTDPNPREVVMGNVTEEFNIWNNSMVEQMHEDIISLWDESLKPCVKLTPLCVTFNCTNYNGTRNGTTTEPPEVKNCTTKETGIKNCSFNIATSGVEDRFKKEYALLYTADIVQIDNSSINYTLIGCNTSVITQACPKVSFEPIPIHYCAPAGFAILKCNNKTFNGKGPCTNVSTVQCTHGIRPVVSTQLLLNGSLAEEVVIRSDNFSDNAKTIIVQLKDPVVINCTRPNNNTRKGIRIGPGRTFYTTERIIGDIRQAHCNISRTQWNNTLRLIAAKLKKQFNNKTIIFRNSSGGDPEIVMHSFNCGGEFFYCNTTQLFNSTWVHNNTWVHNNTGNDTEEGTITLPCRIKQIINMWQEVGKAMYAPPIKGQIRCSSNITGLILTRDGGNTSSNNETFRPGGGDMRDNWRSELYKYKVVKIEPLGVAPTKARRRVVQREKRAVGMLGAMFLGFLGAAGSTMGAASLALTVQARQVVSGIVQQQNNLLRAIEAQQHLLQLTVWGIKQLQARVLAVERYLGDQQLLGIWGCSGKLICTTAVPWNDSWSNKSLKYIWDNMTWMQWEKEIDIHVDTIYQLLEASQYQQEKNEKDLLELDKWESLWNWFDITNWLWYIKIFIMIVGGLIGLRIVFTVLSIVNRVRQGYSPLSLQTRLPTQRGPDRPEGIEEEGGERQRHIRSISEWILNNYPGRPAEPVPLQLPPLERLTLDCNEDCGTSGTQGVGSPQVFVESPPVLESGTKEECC

In the case of `Cc1ccccc1C(=O)Nc1cccc(C(=O)N/N=C/c2cc(Cl)cc([N+](=O)[O-])c2O)c1`, the IC50 is reported as 31.3 µM (active).
